This is an account of results in patent publication US6849659B2, “Pharmaceutical composition containing citalopram” (H. Lundbeck A/S, priority 2000, dated 2005).

SMILES strings stand for the structures. Structures can show the parent of a compound that is named as a salt.

The data set is described as follows: Particle size distribution (Sympatec Helos laser diffraction). It is filed as physicochemical. Particulars: for Particle size distribution, quantile 5% / Particle size distribution, quantile 10% / Particle size distribution, quantile 50% (median particle size) / Particle size distribution, quantile 90% / Particle size distribution, quantile 95%: Sympatec Helos.

Description: As used herein, “particle size distribution” means the distribution of equivalent spherical diameters as determined by laser diffraction at 1 bar dispersive pressure in a Sympatec Helos equipment. “Median particle size”, correspondingly, means the median of said particle size distribution.

Regarding `Br.CN(C)CCCC1(c2ccc(F)cc2)OCc2cc(C#N)ccc21` (single isomer, unassigned) [Example 3, Citalopram hydrobromide], the “Particle size distribution, quantile 5%” value is on record as 0.82 μm; the “Particle size distribution, quantile 10%” value was 1.19 μm; the “Particle size distribution, quantile 50% (median particle size)” value is 14.04 μm; the “Particle size distribution, quantile 90%” value was 72.27 μm. For the same compound, the “Particle size distribution, quantile 95%” value is reported as 96.96 μm.

On to `Br.CN(C)CCCC1(c2ccc(F)cc2)OCc2cc(C#N)ccc21` (single isomer, unassigned) [Example 1, Citalopram hydrobromide], for which the “Particle size distribution, quantile 5%” value came to 8.23 μm; the “Particle size distribution, quantile 10%” value stood at 16.54 μm; the “Particle size distribution, quantile 50% (median particle size)” value came to 96.87 μm; the “Particle size distribution, quantile 90%” value came to 342.89 μm. Also, the “Particle size distribution, quantile 95%” value was 465.43 μm.

Regarding `Br.CN(C)CCCC1(c2ccc(F)cc2)OCc2cc(C#N)ccc21` (single isomer, unassigned) [Example 2, Citalopram hydrobromide], the “Particle size distribution, quantile 5%” value was found to be 6.67 μm; the “Particle size distribution, quantile 10%” value was determined as 11.97 μm; the “Particle size distribution, quantile 50% (median particle size)” value was 52.70 μm; the “Particle size distribution, quantile 90%” value is on record as 352.23 μm. The “Particle size distribution, quantile 95%” value is listed as 549.42 μm.

Regarding `CN(C)CCCC1(c2ccc(F)cc2)OCc2cc(C#N)ccc21` (stereo not shown) [citalopram hydrobromide, reference compound], the Particle size (product of the process used for the preparation of citalopram hydrobromide (background)) was 2-20 μm.
